How the values were obtained:
Assay in all cases: relative viability (nuclei count vs DMSO), 5 days (fraction); higher = more cells survive
QS11 + OSI-027 = compound: C1CC2=C(C1)C=C(C=C2)OC3=NC(=C4C(=N3)N(C=N4)CC5=CC=C(C=C5)C6=CC=CC=C6)N[C@@H](CC7=CC=CC=C7)CO [QS11] + COc1cccc2cc(-c3nc([C@H]4CC[C@H](C(=O)O)CC4)n4ncnc(N)c34)[nH]c12 [OSI-027] (partner 0.5 µM)
Summary of the method: (§1)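 Lung cancer cell lines were pin-tool dosed in 1536-well plates on the day after seeding, with either a lone drug or a fixed anchor-drug dose plus five library-drug doses (not always all listed) in √10 steps. Nuclei were counted on 4× images after 5 days. Relative viability is the ratio of treated-well to vehicle-well nuclei counts, with each value a median of duplicate plates.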

[1] = compound: C[As](C)SC[C@H](NC(=O)CC[C@H](N)C(=O)O)C(=O)NCC(=O)O [Darinaparsin] + N=C(N)NC(=N)NCCc1ccccc1 [Phenformin] (partner 250 µM)
Summary of the method: as §1

AZ628 + AZD7762 = compound: CC1=C(C=C(C=C1)NC(=O)C2=CC(=CC=C2)C(C)(C)C#N)NC3=CC4=C(C=C3)N=CN(C4=O)C [AZ628] + NC(=O)Nc1cc(-c2cccc(F)c2)sc1C(=O)N[C@H]1CCCNC1 [AZD7762] (partner 0.2 µM)
Summary of the method: as §1

Darinaparsin + OSI-027 = compound: C[As](C)SC[C@H](NC(=O)CC[C@H](N)C(=O)O)C(=O)NCC(=O)O [Darinaparsin] + COc1cccc2cc(-c3nc([C@H]4CC[C@H](C(=O)O)CC4)n4ncnc(N)c34)[nH]c12 [OSI-027] (partner 0.5 µM)
Summary of the method: as §1

Cell Line	relative viability (QS11 + OSI-027; first compound 0.08 µM)	relative viability (QS11 + OSI-027; first compound 0.253 µM)	relative viability (QS11 + OSI-027; first compound 0.8 µM)	relative viability (QS11 + OSI-027; first compound 2.53 µM)	relative viability (QS11 + OSI-027; first compound 8 µM)	relative viability ([1]; first compound 0.08 µM)	relative viability ([1]; first compound 0.8 µM)	relative viability ([1]; first compound 2.53 µM)	relative viability ([1]; first compound 8 µM)	relative viability (AZ628 + AZD7762; first compound 0.08 µM)	relative viability (AZ628 + AZD7762; first compound 0.253 µM)	relative viability (AZ628 + AZD7762; first compound 0.8 µM)	relative viability (AZ628 + AZD7762; first compound 2.53 µM)	relative viability (AZ628 + AZD7762; first compound 8 µM)	relative viability (Darinaparsin + OSI-027; first compound 0.08 µM)	relative viability (Darinaparsin + OSI-027; first compound 0.8 µM)	relative viability (Darinaparsin + OSI-027; first compound 2.53 µM)	relative viability (Darinaparsin + OSI-027; first compound 8 µM)
NCI-H650	0.513	0.513	0.548	0.483	0.456	0.476	0.479	0.428	0.484	1.14	1.24	1.37	1.14	0.691	0.584	0.531	0.533	0.604
NCI-H1437	0.95	0.946	0.77	0.834	0.827	0.327	0.298	0.358	0.281	1.17	1.07	0.657	1.13	0.898	0.955	0.897	0.935	1.01
NCI-H460	0.719	0.756	0.663	0.446	0.257	0.553	0.557	0.506	0.884	0.51	0.589	0.627	0.672	0.596	0.98	0.753	0.537	1.19
HARA	0.41	0.453		0.457	0.595	0.542	0.416	0.38	0.728	0.299	0.216	0.272	0.363	0.228	0.68	0.502	0.54	0.572
NCI-H2085	0.724	0.655	0.886	0.724	0.831	0.852	0.797	0.706	0.747	0.997	0.925	1.04	1.01	0.566	0.778	0.806	0.762	0.673
NCI-H1395	0.603	0.718	0.626	0.735	0.637	0.457	0.471	0.409	0.459	0.431	0.421	0.381	0.372	0.358	0.744	0.636	0.586	0.628
RERF-LC-KJ	0.519	0.578	0.543	0.448	0.438	0.495	0.447	0.369	0.434	0.948	0.901	1.56	1.03	0.87	0.592	0.574	0.527	0.596
HCC-78	0.405	0.351	0.35	0.435	0.478	0.728	0.772	0.819	0.745	0.808	0.663	0.644	0.85	0.787	0.375	0.394	0.379	0.372
NCI-H2087	0.523	0.5		0.532	0.532	0.553	0.451	0.467	0.608	1.04	1.04	1.03	1.13	0.298	0.604	0.67	0.527	0.705
EMC-BAC-2	0.391	0.397	0.452	0.373	0.337	0.559	0.505	0.514	0.559	1.16	1.09	1.18	1.13	1.28	0.364	0.315	0.405	0.409
A-427	0.411	0.455		0.507	0.408	0.348	0.316	0.298	0.36	0.591	0.569	0.6	0.524	0.352	0.424	0.445	0.466	0.582
NCI-H522	0.733	0.795	0.722	0.727	1.97	0.711	0.597	0.611	0.658	0.826	0.721	0.749	0.863	0.708	0.617	0.644	0.623	0.712
NCI-H727	0.576	0.708	0.579	0.404	0.461	0.405	0.416	0.569	0.475	0.504			0.369	0.333	0.77	0.541	0.794	0.854
NCI-H2170	0.691	0.692	0.703	0.8	0.743	0.429	0.427	0.424	0.464	0.882	0.793	0.832	1.02	0.743	0.734	0.725	0.697	0.727
PC-3 [JPC-3]	0.794	0.743	0.371	0.718	0.739	0.534	0.481	0.436	0.467	0.929	0.754	0.808	0.83	0.727	0.844	0.781	0.734	0.788
SW 900	0.547	0.601	0.661	0.487	0.423	0.836	0.475	0.701	0.643	0.552	0.552	0.494	0.634	0.378	0.851	0.547	0.72	0.756
HCC-827	0.845	0.855	0.754	0.862	1.01	0.41	0.417	0.331	0.435	0.258	0.177	0.17	0.217	0.166	0.705	0.837	0.626	0.766
NCI-H1666	0.856	0.696	0.667	0.604	0.606	0.623	0.545	0.617	0.575	0.837	0.742	0.645	0.737	0.651	0.926	0.827	0.847	0.982
